Here are results for six compounds from US20260378560A1, “APPROACHES TO DESIGNING AND PERFORMING COMPRESSED BIOLOGICAL EXPERIMENTS AND SYSTEMS FOR IMPLEMENTING THE SAME” (EXVIVO LABS INC., priority 2023, published 2026).

Molecules are shown by their SMILES.

The test system of the first assay is pooled samples of three cancer cell lines. Briefly: Cell viability (CellTiter Glo) of compressed pooled samples of three individually cultured cell lines (Sample Compression). The format is cell-based. As to conditions: 5 Pick 3, Pool 1 (REH, SUP-B15, CCRF-CFM). The procedure:
Total cell viability was measured for each cancer cell line using an Adenosine TriPhosphate (“ATP”) assay, and more specifically an ATP-based luminescence assay (i.e., CellTiter Glo). Each cancer drug was screened at multiple concentrations ranging from one nanomolar (nM) to ten micromolar (UM) in order to generate a dose-response curve and calculate a drug response score (“DRS”) for each cancer cell line. The DRS was calculated as a continuous function of multiple parameters of the non-linear dose-response curve, including the slope at the half-maximal effective concentration (also called “EC50”) and the top and bottom asymptotes of the dose-response curve. […] After total cell viability was measured and DRS was calculated, the DRS of each cancer cell line in the pool was deconvolved for each cancer drug.
A benefit of the compression methodology is the ability to compress members of a library into pools for co-culture screens or compress individual cell cultures into pooled samples for measurement. For example, leukemia cell lines can interact in co-cultures through their immune receptors, which may result in cell activation, cytokine production, and other effects that may impact drug sensitivity and resistance. […] Instead of creating compressed target cells in pooled co-cultures, compression was instead used to enable individual cultures of each cell line, with pooled measurements to reduce reagents and instrument time. With individual cultures and sample compression, it was possible to accurately deconvolute DRS for each drug on each cell line, as shown in Table IV.
In general terms: ATP-based viability assays read luminescence as a measure of living cells.
Take `CC1(C)CCC(CN2CCN(c3ccc(C(=O)NS(=O)(=O)c4ccc(NCC5CCOCC5)c([N+](=O)[O-])c4)c(Oc4cnc5[nH]ccc5c4)c3)CC2)=C(c2ccc(Cl)cc2)C1` [Venetoclax]: the DRS of pool was 13.99.

`N#Cc1ccnc(N2C(=O)CC[C@H]2C(=O)N(c2cncc(F)c2)[C@H](C(=O)NC2CC(F)(F)C2)c2ccccc2Cl)c1` [Ivosidenib]: the DRS of pool is 0.52.

`Cc1[nH]c2ccccc2c1CCNCc1ccc(/C=C/C(=O)NO)cc1` [Panobinostat] yielded a DRS of pool of 18.56.

The compound `COc1c(OCCCN2CCOCC2)ccc2c1N=C(NC(=O)c1cnc(N)nc1)N1CCN=C21` [Copanlisib] had a DRS of pool of 10.47.

The same assay, now with this note: 5 Pick 3, Pool 2 (SUP-B15, CCRF-HSB2, MOLT-4).
As for `CC1(C)CCC(CN2CCN(c3ccc(C(=O)NS(=O)(=O)c4ccc(NCC5CCOCC5)c([N+](=O)[O-])c4)c(Oc4cnc5[nH]ccc5c4)c3)CC2)=C(c2ccc(Cl)cc2)C1` [Venetoclax], the DRS of pool amounted to 13.60.

For the compound `N#Cc1ccnc(N2C(=O)CC[C@H]2C(=O)N(c2cncc(F)c2)[C@H](C(=O)NC2CC(F)(F)C2)c2ccccc2Cl)c1` [Ivosidenib], the DRS of pool was 0.55.

The compound `Cc1[nH]c2ccccc2c1CCNCc1ccc(/C=C/C(=O)NO)cc1` [Panobinostat] returned a DRS of pool of 19.17.

Take `COc1c(OCCCN2CCOCC2)ccc2c1N=C(NC(=O)c1cnc(N)nc1)N1CCN=C21` [Copanlisib]: the DRS of pool is recorded as 6.63.

Still in this assay, the particulars now being: 5 Pick 3, Pool 3 (SUP-B15, CCRF-CFM, CCRF-HSB2).
Compound `CC1(C)CCC(CN2CCN(c3ccc(C(=O)NS(=O)(=O)c4ccc(NCC5CCOCC5)c([N+](=O)[O-])c4)c(Oc4cnc5[nH]ccc5c4)c3)CC2)=C(c2ccc(Cl)cc2)C1` [Venetoclax] came in with a DRS of pool of 12.57.

`N#Cc1ccnc(N2C(=O)CC[C@H]2C(=O)N(c2cncc(F)c2)[C@H](C(=O)NC2CC(F)(F)C2)c2ccccc2Cl)c1` [Ivosidenib] gave a DRS of pool of 0.82.

In turn, `Cc1[nH]c2ccccc2c1CCNCc1ccc(/C=C/C(=O)NO)cc1` [Panobinostat] displayed a DRS of pool of 20.34.

With `COc1c(OCCCN2CCOCC2)ccc2c1N=C(NC(=O)c1cnc(N)nc1)N1CCN=C21` [Copanlisib], the DRS of pool came to 8.39.

Staying with this assay, now noted: 5 Pick 3, Pool 4 (REH, CCRF-CFM, MOLT-4).
In turn, `CC1(C)CCC(CN2CCN(c3ccc(C(=O)NS(=O)(=O)c4ccc(NCC5CCOCC5)c([N+](=O)[O-])c4)c(Oc4cnc5[nH]ccc5c4)c3)CC2)=C(c2ccc(Cl)cc2)C1` [Venetoclax] displayed a DRS of pool of 2.91.

For the compound `N#Cc1ccnc(N2C(=O)CC[C@H]2C(=O)N(c2cncc(F)c2)[C@H](C(=O)NC2CC(F)(F)C2)c2ccccc2Cl)c1` [Ivosidenib], the DRS of pool was found to be 0.51.

The compound `Cc1[nH]c2ccccc2c1CCNCc1ccc(/C=C/C(=O)NO)cc1` [Panobinostat] yielded a DRS of pool of 14.93.

As to `COc1c(OCCCN2CCOCC2)ccc2c1N=C(NC(=O)c1cnc(N)nc1)N1CCN=C21` [Copanlisib], the DRS of pool came out at 13.65.

The assay is the same for the next values; noted with them: 5 Pick 3, Pool 5 (REH, CCRF-HSB2, MOLT-4).
Take `CC1(C)CCC(CN2CCN(c3ccc(C(=O)NS(=O)(=O)c4ccc(NCC5CCOCC5)c([N+](=O)[O-])c4)c(Oc4cnc5[nH]ccc5c4)c3)CC2)=C(c2ccc(Cl)cc2)C1` [Venetoclax]: the DRS of pool was 2.41.

In the case of `N#Cc1ccnc(N2C(=O)CC[C@H]2C(=O)N(c2cncc(F)c2)[C@H](C(=O)NC2CC(F)(F)C2)c2ccccc2Cl)c1` [Ivosidenib], the DRS of pool is on record as 0.74.

`Cc1[nH]c2ccccc2c1CCNCc1ccc(/C=C/C(=O)NO)cc1` [Panobinostat] showed a DRS of pool of 15.87.

Consider `COc1c(OCCCN2CCOCC2)ccc2c1N=C(NC(=O)c1cnc(N)nc1)N1CCN=C21` [Copanlisib], for which the DRS of pool was 10.96.

The subject of the next assay is MOLT-4. Briefly: Cell viability (CellTiter Glo), compressed perturbation pools with informed pool design, SUM-based deconvolution, MOLT-4. The arrangement: scale not given here.
Settings: not given
The method, boiled down:
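Cells were exposed to cancer drugs at 1 nM–10 μM, and viability was read by ATP luminescence (CellTiter Glo) to fit dose-response scores. Pools were overlapping and class-informed: same-class drugs went to different cohorts, and PI3K was kept apart from MAPK inhibitors. Per-drug scores were recovered by additive SUM deconvolution, with the lowest-ranked drug anchored at zero where needed.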
Consider `CC1(C)CCC(CN2CCN(c3ccc(C(=O)NS(=O)(=O)c4ccc(NCC5CCOCC5)c([N+](=O)[O-])c4)c(Oc4cnc5[nH]ccc5c4)c3)CC2)=C(c2ccc(Cl)cc2)C1` [Venetoclax], for which the “DRS, MOLT-4, SUM” value came to 2.44.

For `C=CC(=O)Nc1cc(Nc2nccc(-c3cn(C)c4ccccc34)n2)c(OC)cc1N(C)CCN(C)C` [Osimertinib], the “DRS, MOLT-4, SUM” value was determined as 0.54.

Consider `COc1cc2ncnc(Nc3ccc(F)c(Cl)c3)c2cc1OCCCN1CCOCC1` [Gefitinib], for which the “DRS, MOLT-4, SUM” value is 2.22.

The test system of another assay is SUP-B15. Briefly: ATP-based luminescence cell viability (CellTiter Glo), drug response score, SUP-B15. Details: scale not given here. As to conditions: SUP-B15, screened individually (Compress: None).
Turning to `CC1(C)CCC(CN2CCN(c3ccc(C(=O)NS(=O)(=O)c4ccc(NCC5CCOCC5)c([N+](=O)[O-])c4)c(Oc4cnc5[nH]ccc5c4)c3)CC2)=C(c2ccc(Cl)cc2)C1` [Venetoclax], the “drug response score (DRS)” value is recorded as 37.40.

As for `N#Cc1ccnc(N2C(=O)CC[C@H]2C(=O)N(c2cncc(F)c2)[C@H](C(=O)NC2CC(F)(F)C2)c2ccccc2Cl)c1` [Ivosidenib], the “drug response score (DRS)” value stood at 0.00.

As to `Cc1[nH]c2ccccc2c1CCNCc1ccc(/C=C/C(=O)NO)cc1` [Panobinostat], the “drug response score (DRS)” value is 22.40.

For `COc1c(OCCCN2CCOCC2)ccc2c1N=C(NC(=O)c1cnc(N)nc1)N1CCN=C21` [Copanlisib], the “drug response score (DRS)” value is on record as 2.84.

The subject of the next assay is CCRF-HSB2. Briefly: ATP-based luminescence cell viability (CellTiter Glo), drug response score, CCRF-HSB2. The note with it: CCRF-HSB2, screened individually (Compress: None).
`CC1(C)CCC(CN2CCN(c3ccc(C(=O)NS(=O)(=O)c4ccc(NCC5CCOCC5)c([N+](=O)[O-])c4)c(Oc4cnc5[nH]ccc5c4)c3)CC2)=C(c2ccc(Cl)cc2)C1` [Venetoclax]: the “drug response score (DRS)” value is given as 0.00.

In the case of `N#Cc1ccnc(N2C(=O)CC[C@H]2C(=O)N(c2cncc(F)c2)[C@H](C(=O)NC2CC(F)(F)C2)c2ccccc2Cl)c1` [Ivosidenib], the “drug response score (DRS)” value is listed as 1.60.

For `Cc1[nH]c2ccccc2c1CCNCc1ccc(/C=C/C(=O)NO)cc1` [Panobinostat], the “drug response score (DRS)” value is recorded as 17.40.

Consider `COc1c(OCCCN2CCOCC2)ccc2c1N=C(NC(=O)c1cnc(N)nc1)N1CCN=C21` [Copanlisib], for which the “drug response score (DRS)” value came to 6.94.
